Patent US7763627B2, “Tie-2 modulators and methods of use” (Exelixis, Inc., priority 2003, dated 2010)

molecular target: Tie-2 (Homo sapiens, UniProt Q02763); assay: Tie-2 tyrosine kinase inhibition (ATP consumption by luciferase/luciferin chemiluminescence or 33P-ATP incorporation into pEY substrate); assay type: biochemical; settings: human enzyme Tie-2; inhibition given as class symbol
Method: Tyrosine kinase activity is determined by 1) measurement of kinase-dependent ATP consumption by in the presence of a generic substrate such as polyglutamine, tyrosin (pEY), by luciferase/luciferin-mediated chemiluminescence or; 2) incorporation of radioactive phosphate derived from ^33P-ATP into a generic substrate which has been adsorbed onto the well surface of polystyrene microtiter plates. Phosphorylated substrate products are quantified by scintillation spectrometry.
Inhibition is indicated as IC50 with following key: A=IC50 less than 50 nM, B=IC50 greater than 50 nM, but less than or equal to 1000 nM, C=IC50 greater than 1000 nM, but less than 10,000 nM, and D=IC50 10,000 nM or greater. The abbreviation for human enzyme, Tie-2, is defined as tyrosine kinase with immunoglobulin and EGF repeats.

Tie-2, sequence (Q02763 23-1124): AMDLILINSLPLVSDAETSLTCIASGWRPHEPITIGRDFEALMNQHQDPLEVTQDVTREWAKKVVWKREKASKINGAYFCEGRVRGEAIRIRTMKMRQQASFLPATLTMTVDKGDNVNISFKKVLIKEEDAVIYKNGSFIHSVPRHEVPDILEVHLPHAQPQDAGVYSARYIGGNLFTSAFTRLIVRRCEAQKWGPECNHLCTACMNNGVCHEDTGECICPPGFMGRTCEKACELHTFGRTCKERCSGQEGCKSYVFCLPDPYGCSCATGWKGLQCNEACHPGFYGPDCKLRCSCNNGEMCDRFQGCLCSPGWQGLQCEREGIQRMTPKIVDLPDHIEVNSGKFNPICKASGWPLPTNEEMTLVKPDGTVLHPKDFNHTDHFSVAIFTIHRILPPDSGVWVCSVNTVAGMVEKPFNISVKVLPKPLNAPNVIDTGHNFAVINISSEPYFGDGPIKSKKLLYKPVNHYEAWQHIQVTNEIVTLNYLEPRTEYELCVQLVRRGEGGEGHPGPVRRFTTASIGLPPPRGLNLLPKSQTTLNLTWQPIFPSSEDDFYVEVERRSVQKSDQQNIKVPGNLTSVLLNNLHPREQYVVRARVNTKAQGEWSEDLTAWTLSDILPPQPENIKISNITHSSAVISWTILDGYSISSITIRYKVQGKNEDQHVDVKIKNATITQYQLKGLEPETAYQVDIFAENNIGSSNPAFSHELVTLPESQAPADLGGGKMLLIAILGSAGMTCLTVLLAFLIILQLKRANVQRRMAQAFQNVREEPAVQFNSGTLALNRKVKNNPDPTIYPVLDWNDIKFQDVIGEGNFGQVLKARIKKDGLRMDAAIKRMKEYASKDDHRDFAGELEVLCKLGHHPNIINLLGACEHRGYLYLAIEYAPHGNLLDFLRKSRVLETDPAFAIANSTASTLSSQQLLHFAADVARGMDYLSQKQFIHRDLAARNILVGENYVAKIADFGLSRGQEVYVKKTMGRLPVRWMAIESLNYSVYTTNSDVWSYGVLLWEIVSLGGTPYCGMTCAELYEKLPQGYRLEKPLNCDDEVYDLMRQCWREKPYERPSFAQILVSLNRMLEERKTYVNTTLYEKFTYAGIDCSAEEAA

| SMILES | IC50 [µM] |
| --- | --- |
| c1ccc2c(NC3CCCCC3)nc(-c3ccncc3)nc2c1 [Compound 1, N-cyclohexyl-2-pyridin-4-ylquinazolin-4-amine] | 1 to 10 |
| c1ccc2c(NCCN3CCCC3)nc(-c3ccncc3)nc2c1 [Compound 2, 2-pyridin-4-yl-N-(2-pyrrolidin-1-ylethyl)quinazolin-4-amine] | ≥ 10 |
| c1ccc2c(NC3CCCC3)nc(-c3ccncc3)nc2c1 [Compound 3, N-cyclopentyl-2-pyridin-4-ylquinazolin-4-amine] | 1 to 10 |
| c1ccc2c(NCC3CCCCC3)nc(-c3ccncc3)nc2c1 [Compound 4, N-(cyclohexylmethyl)-2-pyridin-4-ylquinazolin-4-amine] | 1 to 10 |
| OCCNc1nc(-c2ccncc2)nc2ccccc12 [Compound 5, 2-[(2-pyridin-4-ylquinazolin-4-yl)amino]ethanol] | ≥ 10 |
| OCCCNc1nc(-c2ccncc2)nc2ccccc12 [Compound 6, 3-[(2-pyridin-4-ylquinazolin-4-yl)amino]propan-1-ol] | ≥ 10 |
| Fc1ccc(CNc2nc(-c3ccncc3)nc3ccccc23)cc1 [Compound 7, N-[(4-fluorophenyl)methyl]-2-pyridin-4-ylquinazolin-4-amine] | 1 to 10 |
| CN(C)CCNc1nc(-c2ccncc2)nc2ccccc12 [Compound 8, N,N-dimethyl-N′-(2-pyridin-4-ylquinazolin-4-yl)ethane-1,2-diamine] | ≥ 10 |
| c1ccc2c(c1)CCC2Nc1nc(-c2ccncc2)nc2ccccc12 (stereo not drawn) [Compound 9, N-(2,3-dihydro-1H-inden-1-yl)-2-pyridin-4-ylquinazolin-4-amine] | 0.05 to 1 |
| c1ccc2c(NCCN3CCOCC3)nc(-c3ccncc3)nc2c1 [Compound 10, N-(2-morpholin-4-ylethyl)-2-pyridin-4-ylquinazolin-4-amine] | ≥ 10 |
| Oc1ccc(N2CCN(c3nc(-c4ccncc4)nc4ccccc34)CC2)cc1 [Compound 11, 4-[4-(2-pyridin-4-ylquinazolin-4-yl)piperazin-1-yl]phenol] | ≥ 10 |
| c1ccc2c(c1)CC[C@@H](Nc1nc(-c3ccncc3)nc3ccccc13)C2 [Compound 12, 2-pyridin-4-yl-N-[(2R)-1,2,3,4-tetrahydronaphthalen-2-yl]quinazolin-4-amine] | 0.05 to 1 |
| c1ccc2c(N3CCNCC3)nc(-c3ccncc3)nc2c1 [Compound 13, 4-piperazin-1-yl-2-pyridin-4-ylquinazoline] | ≥ 10 |
| CC(C)(C)OC(=O)N1CCN(c2nc(-c3ccncc3)nc3ccccc23)CC1 [Compound 14, 1,1-dimethylethyl 4-(2-pyridin-4-ylquinazolin-4-yl)piperazine-1-carboxylate] | ≥ 10 |
| c1ccc2c(c1)CC[C@H](Nc1nc(-c3ccncc3)nc3ccccc13)C2 [Compound 15, 2-pyridin-4-yl-N-[(2S)-1,2,3,4-tetrahydronaphthalen-2-yl]quinazolin-4-amine] | 1 to 10 |
| c1ccc2c(c1)CC[C@H]2Cc1nc(-c2ccncc2)nc2ccccc12 [Compound 16, 4-[(1S)-2,3-dihydro-1H-inden-1-ylmethyl]-2-pyridin-4-ylquinazoline] | 1 to 10 |
| O[C@H]1Cc2ccccc2[C@H]1Nc1nc(-c2ccncc2)nc2ccccc12 [Compound 17, (1R,2S)-1-[(2-pyridin-4-ylquinazolin-4-yl)amino]-2,3-dihydro-1H-inden-2-ol] | ≥ 10 |
| O[C@@H]1Cc2ccccc2[C@@H]1Nc1nc(-c2ccncc2)nc2ccccc12 [Compound 18, (1S,2R)-1-[(2-pyridin-4-ylquinazolin-4-yl)amino]-2,3-dihydro-1H-inden-2-ol] | < 0.05 |
| CC(C)(C)OC(=O)N1CCC(Nc2nc(-c3ccncc3)nc3ccccc23)CC1 [Compound 19, 1,1-dimethylethyl 4-[(2-pyridin-4-ylquinazolin-4-yl)amino]piperidine-1-carboxylate] | 1 to 10 |
| COc1cc(OC)c(CNc2nc(-c3ccncc3)nc3ccccc23)c(OC)c1 [Compound 20, 2-pyridin-4-yl-N-{[2,4,6-tris(methyloxy)phenyl]methyl}quinazolin-4-amine] | ≥ 10 |
| c1ccc2c(NC3CCNCC3)nc(-c3ccncc3)nc2c1 [Compound 21, N-piperidin-4-yl-2-pyridin-4-ylquinazolin-4-amine] | ≥ 10 |
| c1ccc(CO[C@H]2CCC[C@@H]2Nc2nc(-c3ccncc3)nc3ccccc23)cc1 [Compound 22, N-{(1S,2S)-2-[(phenylmethyl)oxy]cyclopentyl}-2-pyridin-4-ylquinazolin-4-amine] | ≥ 10 |
| c1ccc(Nc2ccc(Nc3nc(-c4ccncc4)nc4ccccc34)cc2)cc1 [Compound 23, N-phenyl-N′-(2-pyridin-4-ylquinazolin-4-yl)benzene-1,4-diamine] | ≥ 10 |

| SMILES | IC50 [µM] |
| --- | --- |
| Oc1cc2ccccc2cc1Nc1nc(-c2ccncc2)nc2ccccc12 [Compound 24, 3-[(2-pyridin-4-ylquinazolin-4-yl)amino]naphthalen-2-ol] | 1 to 10 |
| CC(C)Oc1ccc(Nc2nc(-c3ccncc3)nc3ccccc23)cc1 [Compound 25, N-{4-[(1-methylethyl)oxy]phenyl}-2-pyridin-4-ylquinazolin-4-amine] | 1 to 10 |
| O[C@@H]1Cc2ccccc2[C@@H]1Nc1nc(-c2ccccc2)nc2ccccc12 [Compound 26, (1S,2R)-1-[(2-phenylquinazolin-4-yl)amino]-2,3-dihydro-1H-inden-2-ol] | ≥ 10 |
| O[C@H]1Cc2ccccc2[C@H]1Nc1nc(-c2ccccc2)nc2ccccc12 [Compound 27, (1R,2S)-1-[(2-phenylquinazolin-4-yl)amino]-2,3-dihydro-1H-inden-2-ol] | ≥ 10 |
| O[C@@H]1CCC[C@H]1Nc1nc(-c2ccccc2)nc2ccccc12 [Compound 28, (1R,2R)-2-[(2-phenylquinazolin-4-yl)amino]cyclopentanol] | ≥ 10 |
| O[C@@H]1CCCC[C@H]1Nc1nc(-c2ccccc2)nc2ccccc12 [Compound 29, (1R,2R)-2-[(2-phenylquinazolin-4-yl)amino]cyclohexanol] | ≥ 10 |
| OC[C@H]1C[C@@H](Nc2nc(-c3ccccc3)nc3ccccc23)[C@H](O)[C@@H]1O [Compound 30, (1S,2R,3R,5R)-3-(hydroxymethyl)-5-[(2-phenylquinazolin-4-yl)amino]cyclopentane-1,2-diol] | ≥ 10 |
| O[C@@H]1Cc2ccccc2[C@@H]1Nc1nc(-c2ccncc2)nc2ccc(Cl)cc12 [Compound 31, (1S,2R)-1-[(6-chloro-2-pyridin-4-ylquinazolin-4-yl)amino]-2,3-dihydro-1H-inden-2-ol] | < 0.05 |
| c1ccc2c(NCCN3CCNCC3)nc(-c3ccncc3)nc2c1 [Compound 32, N-(2-piperazin-1-ylethyl)-2-pyridin-4-ylquinazolin-4-amine] | ≥ 10 |
| O[C@@H]1Cc2ccccc2[C@@H]1Nc1nc(-c2cccnc2)nc2ccccc12 [Compound 33, (1S,2R)-1-[(2-pyridin-3-ylquinazolin-4-yl)amino]-2,3-dihydro-1H-inden-2-ol] | 1 to 10 |
| O[C@H]1Cc2ccccc2[C@H]1Nc1nc(-c2cccnc2)nc2ccccc12 [Compound 34, (1R,2S)-1-[(2-pyridin-3-ylquinazolin-4-yl)amino]-2,3-dihydro-1H-inden-2-ol] | ≥ 10 |
| O[C@@H]1CCC[C@H]1Nc1nc(-c2cccnc2)nc2ccccc12 [Compound 35, (1R,2R)-2-[(2-pyridin-3-ylquinazolin-4-yl)amino]cyclopentanol] | ≥ 10 |
| O[C@@H]1CCCC[C@H]1Nc1nc(-c2cccnc2)nc2ccccc12 [Compound 36, (1R,2R)-2-[(2-pyridin-3-ylquinazolin-4-yl)amino]cyclohexanol] | ≥ 10 |
| O[C@@H]1Cc2ccccc2[C@@H]1Nc1nc(-c2ccccn2)nc2ccccc12 [Compound 37, (1S,2R)-1-[(2-pyridin-2-ylquinazolin-4-yl)amino]-2,3-dihydro-1H-inden-2-ol] | ≥ 10 |
| O[C@H]1Cc2ccccc2[C@H]1Nc1nc(-c2ccccn2)nc2ccccc12 [Compound 38, (1R,2S)-1-[(2-pyridin-2-ylquinazolin-4-yl)amino]-2,3-dihydro-1H-inden-2-ol] | ≥ 10 |
| OC[C@@H](O)CNc1nc(-c2ccncc2)nc2ccccc12 [Compound 39, (2S)-3-[(2-pyridin-4-ylquinazolin-4-yl)amino]propane-1,2-diol] | ≥ 10 |
| OC[C@@H]1Cc2ccccc2N1c1nc(-c2ccncc2)nc2ccccc12 [Compound 40, [(2S)-1-(2-pyridin-4-ylquinazolin-4-yl)-2,3-dihydro-1H-indol-2-yl]methanol] | ≥ 10 |
| C[C@H](CO)Nc1nc(-c2ccncc2)nc2ccccc12 [Compound 41, (2R)-2-[(2-pyridin-4-ylquinazolin-4-yl)amino]propan-1-ol] | ≥ 10 |
| C[C@H](O)CNc1nc(-c2ccncc2)nc2ccccc12 [Compound 42, (2S)-1-[(2-pyridin-4-ylquinazolin-4-yl)amino]propan-2-ol] | ≥ 10 |
| CCc1cc(-c2nc(N[C@H]3c4ccccc4C[C@H]3O)c3ccccc3n2)ccn1 [Compound 43, (1S,2R)-1-{[2-(2-ethylpyridin-4-yl)quinazolin-4-yl]amino}-2,3-dihydro-1H-inden-2-ol] | ≥ 10 |
| CCc1cc(-c2nc(N[C@@H]3c4ccccc4C[C@@H]3O)c3ccccc3n2)ccn1 [Compound 44, (1R,2S)-1-{[2-(2-ethylpyridin-4-yl)quinazolin-4-yl]amino}-2,3-dihydro-1H-inden-2-ol] | ≥ 10 |
| O[C@@H]1Cc2ccccc2[C@@H]1Nc1nc(-c2ccncc2)nc2ccc(Br)cc12 [Compound 45, (1S,2R)-1-[(6-bromo-2-pyridin-4-ylquinazolin-4-yl)amino]-2,3-dihydro-1H-inden-2-ol] | < 0.05 |
